Where a SMILES comes first, the peptide text is derived from it. [ ]: non-standard residue; d: D form. The star is where a group is joined. NHCH2CH2OH = OCCN*; For = O=C*

Data on one molecule can be found in paper PMC7531004, “Discovery of gramicidin A analogues with altered activities by multidimensional screening of a one-bead-one-compound library” (Nature Communications, 2020).

This experiment in a line: H+/Na+ transport assay of bead-derived peptides (one-point). It counts as biochemical. Set-up: key: relative activity; mean of two control wells = 1.00. Conditions: bead-derived peptide solution, EYPC/EYPG LUVs. Put shortly:
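Miniaturized 96-well format. LUVs with entrapped pyranine (1.0 mM) were exposed to peptide for 30 min at RT. Intensities were expressed relative to full lysis by Triton X-100 and no treatment, with control-well mean = 1.00.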

Turning to `CC(C)C[C@@H](NC(=O)[C@H](C)NC(=O)CNC(=O)[C@@H](NC=O)C(C)C)C(=O)N[C@@H](C)C(=O)N[C@@H](C(=O)N[C@H](C(=O)N[C@@H](C(=O)N[C@@H](Cc1c[nH]c2ccccc12)C(=O)N[C@H](CC(C)C)C(=O)N[C@@H](Cc1c[nH]c2ccccc12)C(=O)N[C@H](CC(C)C)C(=O)N[C@@H](Cc1c[nH]c2ccccc12)C(=O)N[C@H](CC(C)C)C(=O)N[C@@H](Cc1c[nH]c2ccccc12)C(=O)NCCO)C(C)C)C(C)C)C(C)C` [compound 1, Gramicidin A] (For-VGA[dL]A[dV]V[dV]W[dL]W[dL]W[dL]W-NHCH2CH2OH), the “H+/Na+ transport activity normalized against the value of 1 (1.00)” value turned out to be 1.07.
